# Measurements taken from patent EP4810052A2, “HCRHR2 SELECTIVE POLYPEPTIDES” (Gubra A/S, priority 2023, dated 2026).
# Starred links: 1 amine or outer side, 2 acyl side, 3 side chain; linkers in the order of their positions; H or OH if unused. Non-standard residues stand in square brackets, D forms with d. Residues, ends and D or L forms follow the SMILES beside them. Groups on a side chain read outwards from the residue. *: point of attachment. C20 diacid = O=C(O)CCCCCCCCCCCCCCCCCCC(=O)*; γGlu = O=C(O)[C@H](CCC(=O)[*:2])N[*:1]; NMeI = CC[C@H](C)[C@H](NC)C(=O)O; Nle = CCCC[C@H](N)C(=O)O; AEEA = NCCOCCOCC(=O)O; Aib = CC(C)(N)C(=O)O
# Assays:
# [1] = Thioflavin T fibril formation assay of purified peptides; type: physicochemical; design: key: Amyloid fibril formation detected by an increase in ThT fluorescence was denoted with "Yes"; samples without increasing ThT fluorescence hence not forming amyloid fibrils were denoted "No"; settings: for Amyloid fibril formation + semaglutide (Ozempic®), pH 7.4: 200 µM compound dissolved in semaglutide drug product, listed as None = drug product alone; for Amyloid fibril formation pH 7.0 / Amyloid fibril formation pH 7.5 / Amyloid fibril formation pH 8.0: 200 µM in 50 mM phosphate buffer
# Method in brief: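 Compounds at 200 µM in 50 mM phosphate buffer at the stated pH values, or at 200 µM in semaglutide drug product adjusted to pH 7.4, with 4 µM ThT final. Fibrillation followed as ThT fluorescence (ex 450/em 480 nm) over 96 h at 40°C, with 5 min shaking at 700 rpm alternating with 5 min rest; triplicates.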
# [2] = Chemical stability of purified peptides (RP-UHPLC main peak purity loss); type: physicochemical; settings: for Purity loss (RP-UPLC analysis) T28-T0 (%): 28 days
# Method in brief: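 Peptides at about 1.0 mg/ml in 50 mM phosphate buffer pH 7.5, or pH-adjusted for the pH series, were incubated at 40 °C for 14 and 28 days. Main-peak purity was taken as main-peak area over total area by RP-UHPLC (UV 215 nm, C8, 50 °C). Purity loss was calculated versus T0.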
# PK in mice = type: in vivo; design: T½ / MRT: unit: h; settings: for MRT / T½ / clearance / half-life / Cmax / Tmax: Mouse; for bioavailability / clearance / half-life / Cmax / Tmax: male, in vivo; for bioavailability: NMRI, mouse; for clearance / half-life / Cmax / Tmax: NMRI/RjHan; for half-life: read-out: T½ (converted)
# Description: Lean male NMRI/RjHan mice were obtained from JanVier (JanVier Labs, France) at 6 weeks of age. The animals were single housed under a 12/12 h dark-light cycle, light off at 3 PM. Room temperature was controlled to 22°C ± 1°C, with 60 % ± 20% humidity. Animals had ad libitum access to regular rodent chow (Altromin 1324, Brogaarden, Denmark) and tap water.
# After 2 weeks of acclimatization, the animals were randomized into treatment groups (n=9 per group) based on body weight. Animals were dosed IV with one peptide and SC with another peptide (15 or 50 nmol/kg) Plasma samples were collected for PK analysis at times 0.17, 1, 3, 6, 24, 30, 48, 72 and 96 hours post dosing in a sparse sampling design with 3 mice per group per timepoint. Plasma samples were analyzed using LC-MSMS and PK parameters were estimated by Non-Compartmental Analysis (NCA).
# PK in rats = type: in vivo; design: T½ / MRT: unit not given here; settings: for MRT / T½ / clearance / half-life / Cmax / Tmax: Rat; for clearance / half-life / Cmax / Tmax / bioavailability: male, in vivo; for clearance / half-life / Cmax / Tmax: Sprague Dawley (RJHan:SD); for half-life: read-out: T½ (converted); for bioavailability: Sprague Dawley, rat
# Method in brief: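 Lean male Sprague Dawley rats (n = 3 per group) got a two-peptide combination at 50 nmol/kg IV and SC. Plasma was sampled from 0.17 to 96 h post dose and analysed by LC-MSMS. PK parameters came from non-compartmental analysis.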
# mCRHR2 = target: T1, mCRHR2 (Mus musculus, UniProt Q60748); assay: cAMP potency, transiently transfected CHO-K1 cells, mCRHR2; type: cell-based; settings: transiently transfected CHO-K1, average n=3; read-out: Transient cell system EC50 (nM) mCRH R2
# T1 construct: DYK (FLAG); host or cells: CHO-K1, transiently transfected
# Description: (§1) Selected peptides were tested for potency on different species (mouse, rat, porcine) using transiently transfected CHO-K1 cells using the general procedure.
# rCRHR2 = target: T2, rCRHR2 (Rattus norvegicus, UniProt P47866); assay: cAMP potency, transiently transfected CHO-K1 cells, rCRHR2; type: cell-based; settings: transiently transfected CHO-K1, average n=3; read-out: Transient cell system EC50 (nM) rCRHR 2
# T2 construct: DYK (FLAG); host or cells: CHO-K1, transiently transfected
# Description: as §1
# pCRHR2 = assay: cAMP potency, transiently transfected CHO-K1 cells, pCRHR2; type: cell-based, pig; settings: transiently transfected CHO-K1, average n=3; read-out: Transient cell system EC50 (nM) pCR HR2
# Description: as §1
# T1 sequence (Q60748 1-431 isoform Q60748-2): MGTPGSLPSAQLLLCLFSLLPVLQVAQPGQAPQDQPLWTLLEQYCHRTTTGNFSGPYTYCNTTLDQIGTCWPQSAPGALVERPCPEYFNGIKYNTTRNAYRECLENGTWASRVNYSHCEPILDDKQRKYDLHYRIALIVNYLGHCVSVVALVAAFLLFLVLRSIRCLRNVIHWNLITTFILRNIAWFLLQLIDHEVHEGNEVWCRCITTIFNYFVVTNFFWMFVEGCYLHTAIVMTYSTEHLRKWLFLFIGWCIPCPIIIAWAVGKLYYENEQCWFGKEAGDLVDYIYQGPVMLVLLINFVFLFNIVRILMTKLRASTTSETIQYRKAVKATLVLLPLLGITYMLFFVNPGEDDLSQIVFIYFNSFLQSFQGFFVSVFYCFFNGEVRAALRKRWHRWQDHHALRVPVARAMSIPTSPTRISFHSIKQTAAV
# T2 sequence (P47866 whole entry): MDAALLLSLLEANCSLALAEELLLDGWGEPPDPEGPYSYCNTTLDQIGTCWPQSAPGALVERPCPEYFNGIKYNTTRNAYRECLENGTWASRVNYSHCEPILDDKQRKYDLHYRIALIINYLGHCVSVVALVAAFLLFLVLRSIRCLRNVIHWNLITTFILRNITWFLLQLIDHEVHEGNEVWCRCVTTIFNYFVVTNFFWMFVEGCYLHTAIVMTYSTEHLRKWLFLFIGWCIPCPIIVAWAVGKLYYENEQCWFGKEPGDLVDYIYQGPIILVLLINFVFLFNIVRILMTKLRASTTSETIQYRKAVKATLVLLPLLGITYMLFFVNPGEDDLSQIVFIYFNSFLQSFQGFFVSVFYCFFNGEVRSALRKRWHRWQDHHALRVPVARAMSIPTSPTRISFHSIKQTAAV
Compound,"Amyloid fibril formation + semaglutide (Ozempic®), pH 7.4 [1]",Amyloid fibril formation pH 7.0 [1],Amyloid fibril formation pH 7.5 ([1]; pH 7.5),Amyloid fibril formation pH 8.0 [1],"Purity loss (RP-UPLC analysis) T14-T0 (%) ([2]; pH 7.0, 40°C, 14 days)","Purity loss (RP-UPLC analysis) T28-T0 (%) ([2]; pH 7.0, 40°C)","Purity loss (RP-UPLC analysis) T14-T0 (%) ([2]; pH 7.5, 40°C, 14 days)","Purity loss (RP-UPLC analysis) T28-T0 (%) ([2]; pH 7.5, 40°C)","Purity loss (RP-UPLC analysis) T14-T0 (%) ([2]; pH 8.0, 40°C, 14 days)","Purity loss (RP-UPLC analysis) T28-T0 (%) ([2]; pH 8.0, 40°C)",MRT (PK in mice),T½ (PK in mice),bioavailability (PK in mice; sc),"clearance (PK in mice; iv, 15 nmol/kg i.v.)","half-life (PK in mice; iv, 15 nmol/kg i.v.)","Cmax (PK in mice; sc, 15 nmol/kg s.c.)","Tmax (PK in mice; sc, 15 nmol/kg s.c.)","half-life (PK in mice; sc, 15 nmol/kg s.c.)",MRT (PK in rats),T½ (PK in rats),also measured
CCCC[C@H](NC(=O)[C@@H](NC(=O)[C@H](CCC(=O)O)NC(=O)C(C)(C)NC(=O)[C@H](CC(N)=O)NC(=O)[C@@H](NC(=O)[C@H](CCCCNC(=O)COCCOCCNC(=O)COCCOCCNC(=O)CC[C@H](NC(=O)CC[C@H](NC(=O)CCCCCCCCCCCCCCCCCCC(=O)O)C(=O)O)C(=O)O)NC(=O)[C@H](C)NC(=O)[C@H](CCC(N)=O)NC(=O)[C@H](CCC(=O)O)NC(=O)[C@H](CCCNC(=N)N)NC(=O)[C@H](C)NC(=O)[C@H](C)NC(=O)[C@H](CCCNC(=N)N)NC(=O)[C@H](C)NC(=O)[C@H](CCCNC(=N)N)NC(=O)[C@H](C)NC(=O)[C@H](CCC(N)=O)NC(=O)[C@H](CO)NC(=O)[C@H](CC(C)C)NC(=O)[C@H](CC(C)C)NC(=O)[C@@H](NC(=O)[C@H](CCC(N)=O)NC(=O)[C@H](CC(C)C)NC(=O)[C@H](CC(C)C)NC(=O)CNC(=O)[C@@H](NC(=O)[C@@H]1CCCN1C(=O)[C@@H](NC(=O)[C@H](CC(=O)O)NC(=O)[C@H](CC(C)C)NC(=O)[C@H](CO)NC(=O)[C@H](CC(C)C)NC(=O)[C@@H](NC(=O)[C@@H](NC)[C@@H](C)CC)C(C)C)C(C)C)[C@@H](C)CC)[C@@H](C)CC)[C@@H](C)O)[C@@H](C)CC)C(=O)N[C@@H](C)C(=O)N[C@@H](CCC(=O)O)C(=O)N[C@H](C(N)=O)C(C)C [SEQ ID NO: 215] (H-[NMeI]VLSLDVPIGLLQILLSQARARAAREQAK([AEEA-AEEA-γGlu-γGlu-C20 diacid])TN[Aib]EI[Nle]AEV-NH2),No,No,No,No,0.2%,-0.3%,0.1%,-0.1%,-0.4%,-0.7%,17.4,12.6,56%,4 mL/h/kg,12.6 h,58 nM,6 h,14.1 h,6.7,5.7,"Fibrillation (pH 7.5) ([1]; pH 7.5): No; Chemical stability at pH 7.5 after 14 days at 40°C (% degradation) ([2]; pH 7.5, 14 days, 40°C): -0.92%; Chemical stability at pH 7.5 after 28 days at 40°C (% degradation) ([2]; pH 7.5, 28 days, 40°C): 0.31%; clearance (PK in rats; iv, 50 nmol/kg i.v.): 12 mL/h/kg; half-life (PK in rats; iv, 50 nmol/kg i.v.): 5.7 h; Cmax (PK in rats; sc, 50 nmol/kg s.c.): 42 nM; Tmax (PK in rats; sc, 50 nmol/kg s.c.): 24 h; half-life (PK in rats; sc, 50 nmol/kg s.c.): 6.1 h; bioavailability (PK in rats; sc): 28%; EC50 (mCRHR2): 0.004 nM; EC50 (rCRHR2): 0.072 nM; EC50 (pCRHR2): 0.017 nM; Solubility pH 6.5 (mg/ml): 19.6 mg/ml; Solubility pH 7.0 (mg/mL): 20.6 mg/mL; Solubility pH 7.5 (mg/mL): 17.7 mg/mL; Solubility pH 7.5 + phenol (mg/mL): 18.0 mg/mL; Solubility pH 7.5, target conc. =10 mg/mL (measured mg/mL): 12 mg/mL"
CC[C@H](C)[C@H](NC)C(=O)N[C@H](C(=O)N[C@@H](CC(C)C)C(=O)N[C@@H](CO)C(=O)N[C@@H](CC(C)C)C(=O)N[C@@H](CC(=O)O)C(=O)N[C@H](C(=O)N1CCC[C@H]1C(=O)N[C@H](C(=O)NCC(=O)N[C@@H](CC(C)C)C(=O)N[C@@H](CC(C)C)C(=O)N[C@@H](CCC(N)=O)C(=O)N[C@H](C(=O)N[C@@H](CC(C)C)C(=O)N[C@@H](CC(C)C)C(=O)N[C@@H](CCC(=O)O)C(=O)N[C@@H](CCC(N)=O)C(=O)N[C@@H](C)C(=O)N[C@@H](CCCNC(=N)N)C(=O)N[C@@H](C)C(=O)N[C@@H](CCCNC(=N)N)C(=O)N[C@@H](C)C(=O)N[C@@H](C)C(=O)N[C@@H](CCCNC(=N)N)C(=O)N[C@@H](CCC(=O)O)C(=O)N[C@@H](CCC(N)=O)C(=O)N[C@@H](C)C(=O)N[C@@H](CCCCNC(=O)COCCOCCNC(=O)COCCOCCNC(=O)CC[C@H](NC(=O)CC[C@H](NC(=O)CCCCCCCCCCCCCCCCCCC(=O)O)C(=O)O)C(=O)O)C(=O)N[C@H](C(=O)N[C@@H](CC(N)=O)C(=O)NC(C)(C)C(=O)N[C@@H](CCC(=O)O)C(=O)N[C@H](C(=O)N[C@@H](CC(C)C)C(=O)N[C@@H](C)C(=O)N[C@@H](CCC(=O)O)C(=O)N[C@H](C(N)=O)C(C)C)[C@@H](C)CC)[C@@H](C)O)[C@@H](C)CC)[C@@H](C)CC)C(C)C)C(C)C [SEQ ID NO: 16] (H-[NMeI]VLSLDVPIGLLQILLEQARARAAREQAK([AEEA-AEEA-γGlu-γGlu-C20 diacid])TN[Aib]EILAEV-NH2),No,No,No,No,-0.6%,-1.1%,-0.1%,-0.3%,-0.5%,-1.1%,21.5,15.9,62%,3.7 mL/h/kg,15.9 h,60 nM,6 h,14.8 h,9.4,7.8,"Fibrillation (pH 7.5) ([1]; pH 7.5, ThT assay): No; Chemical stability at pH 7.5 after 14 days at 40°C (% degradation) ([2]; pH 7.5, 40°C, 14 days, first value of cell): -0.6 / %; clearance (PK in rats; iv, 50 nmol/kg i.v.): 7 mL/h/kg; half-life (PK in rats; iv, 50 nmol/kg i.v.): 7.8 h; Cmax (PK in rats; sc, 50 nmol/kg s.c.): 87 nM; Tmax (PK in rats; sc, 50 nmol/kg s.c.): 24 h; half-life (PK in rats; sc, 50 nmol/kg s.c.): 9.8 h; bioavailability (PK in rats; sc): 31%; EC50 (mCRHR2): 0.0049 nM; EC50 (rCRHR2): 0.19 nM; EC50 (pCRHR2): 0.028 nM; Solubility pH 6.5 (mg/ml): 20.6 mg/ml; Solubility pH 7.0 (mg/mL): 19.8 mg/mL; Solubility pH 7.5 (mg/mL): 17.9 mg/mL; Solubility pH 7.5 + phenol (mg/mL): 18.0 mg/mL; Solubility pH 7.5, target conc. =10 mg/mL (measured mg/mL): 10 mg/mL"
